Test results from paper PMC5647257 (Bioorganic & medicinal chemistry letters, 2017).

Target: HIV-1 protease (Human immunodeficiency virus type 1 group M subtype B, UniProt P04585)
Assay: HIV-1 protease inhibitory potency, assay protocol of Toth and Marshall
Assay type: biochemical
Conditions: compared with 13-membered inhibitors 5i and 5j

Row | SMILES | fold reduction of enzyme inhibitory activity over inhibitors 5i and 5j
1 | COc1ccc2c(c1)COC/C=C/CCCCCN(C[C@@H](O)[C@H](Cc1ccccc1)NC(=O)O[C@H]1CO[C@H]3OCC[C@H]31)S2(=O)=O [5l] | greater than 20 fold
2 | COc1ccc2c(c1)COC/C=C\CCCCCN(C[C@@H](O)[C@H](Cc1ccccc1)NC(=O)O[C@H]1CO[C@H]3OCC[C@H]31)S2(=O)=O [5k] | greater than 20 fold
